Results from patent US20240391931A1 (Bristol-Myers Squibb Company, priority 2021, published 2024).
Where a name gives a salt, the structure may show the parent alone. Read-outs that look alike come from different tables or passages of the source.

Columns and labels:
Ba/F3 parental cells = test: Cellular proliferation in Ba/F3 parental (IL3-dependent) cells; format: cell-based, murine; details: Mus musculus, BaF3
Experimental: (§1) Engineered lines expressing HER2YVMA and HER2 WT were prepared in HEK293 (human embryonic kidney cells), Ba/F3 (Interleukin 3 (IL3)-dependent murine pro B cell line), and BEAS2B (primary immortalized human bronchial epithelial cell line). Ba/F3, BEAS2B, and HEK293 cells were obtained from the American Type Culture Collection (ATCC, Manassas, VA). Parental Ba/F3 cells were grown in suspension in complete RPMI 1640 supplemented with 10% FBS and 1% P/S and 10 ng/ml interleukin 3 (IL3, Sigma-Aldrich). Hek293 and BEAS2B cells were grown as monolayers in DMEM supplemented with 10% FBS and 1% P/S. All cells were maintained and propagated in a humidified 5% CO2 incubator at 37° C.
(§2) Cell proliferation in non-adherent cells was investigated in Ba/F3 parental (IL3-dependent) and in the two IL3 independent cell clones tranduced to express mutant HER2 protein containing the YVMA insertion (Ba/F3 HER2YVMA). Cells were plated in DMEM supplemented with 10% FBS, 1% P/S, and 10 ng/ml IL3 (for parental Ba/F3 only) in 96-well white clear-bottom tissue culture plates (Costar, Sigma-Aldrich) at a starting cell density of 7500 cells. An 8-point standard curve with varying cell densities (starting at 100,000 cells and serially diluting down 2-fold) was prepared for each cell line and read after plating. Compound solutions were prepared in serum free media, and cells were treated as described above for adherent cells. Cell viability was determined by CellTiter Glo (Promega, Madison, WI) after 72 h. The results were converted to cell numbers using a standard curve; growth inhibition (GI50 values) were determined by Graph Pad Prism.
(§3) The results of these experiments show the ability of compounds to inhibit cell growth in HER2 dependent cell lines and a control cell line (Ba/F3 parental) are depicted in Table 4 in the columns titled “G150 (nM)”. Ba/F3 parental results fall under the heading “Ba/F3 parental-G150”, and Ba/F3 HER2YVMA fall under the heading “Ba/F3 YVMA-G150”.

HER2 = target: T1, HER2 (Homo sapiens, UniProt P04626); test: HER2 occupancy assay in N87 cells; format: cell-based; details: concentration at which 50% of HER2 is irreversible bound, read-out: N87 HER2 Occ
T1 construct: BT474 and N87 cell lines which endogenously overexpress the HER2 wildtype (WT) protein; endogenous in cells; host or cells: BT474, N87
T1 sequence (P04626 23-1255): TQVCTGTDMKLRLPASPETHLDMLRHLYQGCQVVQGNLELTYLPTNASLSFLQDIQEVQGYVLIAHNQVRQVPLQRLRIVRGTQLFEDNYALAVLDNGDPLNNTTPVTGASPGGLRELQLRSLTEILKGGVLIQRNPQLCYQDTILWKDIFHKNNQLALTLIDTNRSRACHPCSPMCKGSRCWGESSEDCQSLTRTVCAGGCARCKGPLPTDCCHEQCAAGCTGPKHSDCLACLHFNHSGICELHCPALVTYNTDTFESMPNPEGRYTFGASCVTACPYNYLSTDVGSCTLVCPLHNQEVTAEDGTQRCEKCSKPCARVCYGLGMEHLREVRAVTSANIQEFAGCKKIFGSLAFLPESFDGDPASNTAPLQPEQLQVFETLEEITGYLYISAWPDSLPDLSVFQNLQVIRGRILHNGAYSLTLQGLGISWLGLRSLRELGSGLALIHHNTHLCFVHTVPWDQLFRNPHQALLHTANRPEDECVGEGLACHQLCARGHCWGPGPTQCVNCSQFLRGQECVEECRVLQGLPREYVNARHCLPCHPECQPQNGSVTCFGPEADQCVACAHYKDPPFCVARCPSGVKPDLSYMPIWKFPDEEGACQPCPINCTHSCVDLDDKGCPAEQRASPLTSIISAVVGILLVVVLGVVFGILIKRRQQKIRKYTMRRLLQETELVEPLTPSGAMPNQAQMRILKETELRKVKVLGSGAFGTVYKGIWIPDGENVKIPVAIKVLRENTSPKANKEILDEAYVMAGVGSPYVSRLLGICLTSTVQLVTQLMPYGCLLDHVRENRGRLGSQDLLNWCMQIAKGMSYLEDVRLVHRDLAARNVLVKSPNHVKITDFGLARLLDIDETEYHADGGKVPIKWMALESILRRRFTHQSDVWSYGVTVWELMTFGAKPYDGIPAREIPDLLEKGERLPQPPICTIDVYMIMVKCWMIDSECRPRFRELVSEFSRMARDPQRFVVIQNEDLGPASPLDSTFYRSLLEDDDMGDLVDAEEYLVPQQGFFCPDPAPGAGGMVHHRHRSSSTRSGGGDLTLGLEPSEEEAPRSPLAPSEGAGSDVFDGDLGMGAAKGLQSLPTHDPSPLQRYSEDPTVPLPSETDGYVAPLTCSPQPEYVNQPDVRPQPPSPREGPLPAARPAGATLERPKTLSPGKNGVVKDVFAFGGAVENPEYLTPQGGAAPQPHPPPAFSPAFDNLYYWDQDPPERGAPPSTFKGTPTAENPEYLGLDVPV
Experimental: In order to assess free HER2 protein, a biotinylated probe was utilized. BT474, N87, and Ba/F3-HER2YVMA cells were treated with test compound as described for HER2 signaling. After compound treatment, cells were washed three times with cold phosphate buffer saline (PBS, Life Technologies, Carlsbad, CA), and lysed in modified occupancy lysis buffer prepared with an irreversible biotinylated tool compound (1 μM) in 25 mM Tris pH 7.5, 150 mM NaCl, 1% Triton, and supplemented with cOmplete, EDTA-free Protease inhibitor cocktail (Roche), Phosphatase Inhibitor Cocktails 2 and 3 (Sigma-Aldrich), and 1 mM PMSF (Sigma-Aldrich).
To determine % occupancy, lysates were loaded into duplicate plates of the phospho (Tyr1248)/total ErbB2 whole cell lysate MSD kit (Meso-Scale Discovery) and incubated overnight. Plates were washed and incubation with either HER2-sulfoTag (1:50, Meso Scale Discovery) or Strep-Sulfo Tag (1:1000, Meso Scale Discovery), for detection of […]. A standard curve of untreated cells in serial dilution was included in each plate to independently fit streptavidin (Free HER2) and total HER2 MSD signals; non-specific signal (BSA control spots) was subtracted from each well. Free HER2 was then normalized by total HER2 for each sample. The results are reported as % DMSO control. The normalized data was fitted using a sigmoidal curve analysis program (Graph Pad Prism version 6) with variable Hill slope to determine EC50 values. The results are provided in Table 4, under columns titled “BT474-HER2 Occ”, “N87-HER2 Occ”, and “Ba/F3 YVMA-HER2 Occ”. HER2 Occ is the concentration of test compound at which 50% of HER2 is irreversible bound.

Ba/F3 HER2YVMA cells = test: Cellular proliferation in Ba/F3 HER2YVMA cells; format: cell-based, murine; details: Mus musculus, BaF3, read-out: Ba/F3 YVMA GI50
Experimental: as §1
To generate Ba/F3, BEAS2B, and Hek-293 cells engineered with lentivirus to express HER2 WT or HER2YVMA, the cells were transduced with lentiviruses at multiplicity of infection (MOI) of 1 or 10; transduced cells were selected and maintained with G418 ([…]) (Geneticin, Life Technologies, Carlsbad, CA). Ba/F3 engineered cells were subjected to gradual withdrawal of interleukin 3 (IL-3, Sigma-Aldrich). After selection, IL3 independent Ba/F3 HER2YVMA, and BEAS2B HER2YVMA cells were cloned by limiting dilution. Hek293 HER2YVMA cells were used as pool. HER2 and phospho HER2 levels were confirmed by flow cytometery and immunoassay (MSD, Meso-Scale Discovery, Rockville, Maryland).
as §2, §3

EGFR = EGFR (Homo sapiens, UniProt P00533); test: EGFR occupancy in N87 cells; format: cell-based; set-up: endogenous in cells; host or cells: N87
Sequence of EGFR (P00533 25-1210): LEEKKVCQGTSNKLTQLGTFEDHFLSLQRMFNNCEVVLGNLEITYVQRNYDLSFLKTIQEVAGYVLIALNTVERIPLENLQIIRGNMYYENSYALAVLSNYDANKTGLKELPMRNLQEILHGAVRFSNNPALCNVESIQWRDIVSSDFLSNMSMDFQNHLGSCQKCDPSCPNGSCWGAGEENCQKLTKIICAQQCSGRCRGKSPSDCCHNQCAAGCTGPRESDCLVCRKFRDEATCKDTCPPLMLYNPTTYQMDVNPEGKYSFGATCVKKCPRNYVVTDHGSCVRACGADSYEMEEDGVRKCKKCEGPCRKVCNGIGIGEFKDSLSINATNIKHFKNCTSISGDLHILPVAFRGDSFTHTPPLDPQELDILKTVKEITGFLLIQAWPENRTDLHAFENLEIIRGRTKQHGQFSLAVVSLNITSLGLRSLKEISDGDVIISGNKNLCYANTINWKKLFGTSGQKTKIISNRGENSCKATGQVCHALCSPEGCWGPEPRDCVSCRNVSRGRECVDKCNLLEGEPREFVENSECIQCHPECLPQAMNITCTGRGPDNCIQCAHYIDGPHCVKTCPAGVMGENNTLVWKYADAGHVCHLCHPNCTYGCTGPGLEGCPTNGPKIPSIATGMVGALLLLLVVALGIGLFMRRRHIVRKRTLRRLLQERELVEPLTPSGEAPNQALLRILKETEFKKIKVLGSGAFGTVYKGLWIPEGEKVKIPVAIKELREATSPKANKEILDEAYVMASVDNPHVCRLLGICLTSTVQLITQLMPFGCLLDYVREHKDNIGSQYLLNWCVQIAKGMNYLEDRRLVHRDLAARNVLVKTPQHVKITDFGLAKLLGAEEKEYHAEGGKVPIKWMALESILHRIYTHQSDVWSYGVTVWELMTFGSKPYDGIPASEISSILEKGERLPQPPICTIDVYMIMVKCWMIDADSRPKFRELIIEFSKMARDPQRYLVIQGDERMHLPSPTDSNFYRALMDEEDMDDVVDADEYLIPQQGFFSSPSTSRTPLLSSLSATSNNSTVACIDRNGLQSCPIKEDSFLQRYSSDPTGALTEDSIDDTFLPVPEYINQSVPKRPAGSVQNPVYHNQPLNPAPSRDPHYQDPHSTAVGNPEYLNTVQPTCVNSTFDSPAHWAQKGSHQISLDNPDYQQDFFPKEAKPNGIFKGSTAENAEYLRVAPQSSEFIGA
Experimental: In order to assess free EGFR protein, a biotinylated probe was utilized as described for HER2 occupancy. N87 cells were plated, treated, and lysed as described for HER2 occupancy method. After treatment, the cells were washed three times with cold PBS, lysed at room temperature for 1 hr in modified occupancy lysis buffer (prepared as described in section titled “HER2 Occupancy Assay”). Lysates were stored at −70° C. until further analysis. For determination of % occupancy, lysates were loaded into duplicate plates of the phospho (Tyr 1068)/total EGFR whole cell lysate kit (Meso-Scale Discovery) and incubated overnight. Plates were washed and incubated with either EGFR-sulfoTag (1:50, Meso Scale Discovery) or Strep-Sulfo Tag (1:1000, Meso Scale Discovery), for detection of free and total EGFR, respectively. BSA control spots included in MSD plates were used to subtract non-specific signal. A standard curve of untreated cells in serial dilution was included in each plate to convert streptavidin and total EGFR MSD signals into free EGFR and total EGFR. Free EGFR was normalized to total EGFR for each sample. Data, reported as % […] control, was fitted using a sigmoidal curve analysis program (Graph Pad Prism version 6) with variable Hill slope to determine EC50 values. The results are provided in Table 4, under column titled “N87-EGFR Occ”. EGFR Occ is the concentration of test compound at which 50% of EGFR is irreversible bound.

[1] = N87 cells, concentration at which 50% of EGFR is irreversible bound, read-out: N87 EGFR Occ

GI50 (Ba/F3 HER2YVMA cells)	EC50 (EGFR; [1])	SMILES	GI50 (Ba/F3 parental cells)	EC50 (HER2)	EC50 (EGFR)
–	> 1000 nM	Cc1cc(Nc2ncnc3sc4c(c23)CCN(C(=O)/C=C/CN2CCOCC2)C4)ccc1Oc1ccc2ncnn2c1 [Compound 12]	–	< 100 nM	–
–	< 100 nM	Cc1ccc(Oc2ccc(Nc3ncnc4sc5c(c34)CCN(C(=O)/C=C/CN3CC4CCC3C4)C5)cc2C)cn1 (stereo not shown) [Compound 14]	–	< 100 nM	–
–	–	Cc1ccc(Oc2ccc(Nc3ncnc4sc5c(c34)CCN(C(=O)/C=C/CN3CC4CCC(C4)C3)C5)cc2C)cn1 [Compound 16, (E)-4-(3-azabicyclo[3.2.1]octan-3-yl)-1-(4-((3-methyl-4-((6-methylpyridin-3-yl)oxy)phenyl)amino)-5,8-dihydropyrido[4′,3′:4,5]thieno[2,3-d]pyrimidin-7(6H)-yl)but-2-en-1-one benzenesulfonate salt]	–	< 100 nM	100 to 350 nM
< 100 nM	–	Cc1ccc(Oc2ccc(Nc3ncnc4sc5c(c34)CN(C(=O)/C=C/CN(C)C)CC5)cc2C)cn1 [Compound 108, (E)-4-(Dimethylamino)-1-(4-((3-methyl-4-((6-methylpyridin-3-yl)oxy)phenyl)amino)-7,8-dihydropyrido[3′,4′:4,5]thieno[2,3-d]pyrimidin-6(5H)-yl)but-2-en-1-one]	1000 to 10000 nM	–	–
< 100 nM	–	Cc1ccc(Oc2ccc(Nc3ncnc4sc5c(c34)CCN(C(=O)/C=C/CN3CC[C@H](F)C3)C5)cc2C)cn1 [Compound 124]	1000 to 10000 nM	–	–
< 100 nM	> 1000 nM	COc1ccc(Oc2ccc(Nc3ncnc4sc5c(c34)CN(C(=O)/C=C/CN(C)C)C5)cc2C)cn1 [Compound 128, (E)-4-(dimethylamino)-1-(4-((4-((6-methoxypyridin-3-yl)oxy)-3-methylphenyl)amino)-5,7-dihydro-6H-pyrrolo[3′,4′:4,5]thieno[2,3-d]pyrimidin-6-yl)but-2-en-1-one]	1000 to 10000 nM	< 100 nM	–
< 100 nM	100 to 350 nM	Cc1ccc(Oc2ccc(Nc3ncnc4sc5c(c34)CN(C(=O)/C=C/CN(C)C)C5)cc2Cl)cn1 [Compound 129, (E)-1-(4-((3-Chloro-4-((6-methylpyridin-3-yl)oxy)phenyl)amino)-5H-pyrrolo[3′,4′:4,5]thieno[2,3-d]pyrimidin-6(7H)-yl)-4-(dimethylamino)but-2-en-1-one]	–	< 100 nM	–
< 100 nM	–	Cc1cc(Nc2ncnc3sc4c(c23)CN(C(=O)/C=C/CN(C)C)C4)ccc1Oc1ccn2ncnc2c1 [Compound 130, (E)-1-(4-((4-([1,2,4]Triazolo[1,5-a]pyridin-7-yloxy)-3-methylphenyl)amino)-5H-pyrrolo[3′,4′:4,5]thieno[2,3-d]pyrimidin-6(7H)-yl)-4-(dimethylamino)but-2-en-1-one]	1000 to 10000 nM	–	–

SMILES	GI50 (Ba/F3 HER2YVMA cells)	EC50 (EGFR; [1])	GI50 (Ba/F3 parental cells)	EC50 (HER2)	EC50 (EGFR)
Cc1ccc(Oc2ccc(Nc3ncnc4sc5c(c34)CCN(C(=O)/C=C/CN(C)C)C5)cc2C)cn1 [Compound 8, (E)-4-(Dimethylamino)-1-(4-((3-methyl-4-((6-methylpyridin-3-yl)oxy)phenyl)amino)-5,6-dihydropyrido[4′,3′:4,5]thieno[2,3-d]pyrimidin-7(8H)-yl)but-2-en-1-one]	< 100 nM	< 100 nM	1000 to 10000 nM	< 100 nM	–
Cc1ccc(Oc2ccc(Nc3ncnc4sc5c(c34)CCN(C(=O)/C=C/CN3CC4CC(C3)O4)C5)cc2C)cn1 [Compound 15]	–	< 100 nM	–	< 100 nM	–
Cc1ccc(Oc2ccc(Nc3ncnc4sc5c(c34)CCN(C(=O)/C=C/CN3CCOCC3)C5)cc2C)cn1 [Compound 17, (E)-1-(4-((3-Methyl-4-((6-methylpyridin-3-yl)oxy)phenyl)amino)-5,6-dihydropyrido[4′,3′:4,5]thieno[2,3-d]pyrimidin-7(8H)-yl)-4-morpholinobut-2-en-1-one]	–	100 to 350 nM	–	< 100 nM	–
Cc1cc(Nc2ncnc3sc4c(c23)CCN(C(=O)/C=C/CN(C)C)C4)ccc1Oc1ccn2ccnc2c1 [Compound 126, (E)-4-(dimethylamino)-1-(4-((4-(imidazo[1,2-a]pyridin-7-yloxy)-3-methylphenyl)amino)-5,8-dihydropyrido[4′,3′:4,5]thieno[2,3-d]pyrimidin-7(6H)-yl)but-2-en-1-one]	< 100 nM	–	1000 to 10000 nM	–	–
Cc1nc2cc(Oc3ccc(Nc4ncnc5sc6c(c45)CCN(C(=O)/C=C/CN(C)C)C6)cc3C)ccn2n1 [Compound 127, (E)-4-(dimethylamino)-1-(4-((3-methyl-4-((2-methyl-[1,2,4]triazolo[1,5-a]pyridin-7-yl)oxy)phenyl)amino)-5,6-dihydropyrido[4′,3′:4,5]thieno[2,3-d]pyrimidin-7(8H)-yl)but-2-en-1-one]	100 to 1000 nM	–	1000 to 10000 nM	–	–
